What was measured:
[1] = tested on: BV-2; experiment: Antiinflammatory activity in mouse BV2 cells assessed as inhibition of LPS-induced nitric oxide production after 24 hrs by Griess assay; type: functional, cell-based; conditions: BV-2, 24 h
[2] = tested on: HepG2; experiment: Hepatoprotective activity against APAP-induced cell injury in human HepG2 cells assessed as survival rate at 10 uM after 48 hrs by MTT assay relative to control; type: functional; conditions: HepG2, 48 h, read-out: Survival

COc1cc(/C=C/C(=O)CC(=O)/C=C/c2ccc(O)c(OC)c2)ccc1O [CURCUMIN]
IC50 [1]: 4.77 µM

CC1=CC(=O)C=C(CO)[C@@]12CC[C@@H](C(C)(C)O[C@@H]1O[C@H](CO)[C@@H](O)[C@H](O)[C@H]1O)C2
IC50 [1]: 11.4 µM

CC1=CC(=O)C=C(CO)[C@@]12CC[C@@H](C(C)(C)O[C@@H]1O[C@H](CO[C@@H]3OC[C@](O)(CO)[C@H]3O)[C@@H](O)[C@H](O)[C@H]1O)C2
viability at 10 µM [2]: 58.2%

COC(=O)c1cc(OC)c2c(c1-c1c(CO)cc(OC)c3c1OCO3)OCO2 [BICYCLOL]
viability at 10 µM [2]: 52.9%
